Type in all cases: functional
In one test the test system is Jurkat. Kind of test: Cytotoxic activity against human JurkatE6.1 cell line was measured after 72 h using MTT assay. To be noted: Homo sapiens, Jurkat, 72 h; read-out: ED50 (the source's name). (In general: Tetrazolium assays rely on reduction of a dye to a coloured formazan, in cell work by metabolically active cells.)
The test system of the next test is A549. The test can be described thus: Cytotoxic activity against human A549 cell line was measured after 72 hr using MTT assay. The following applies: A549, 72 h, read-out: ED50 (the source's name).
A further test deals with L132. Kind of test: Cytotoxic activity against human L132 cell line was measured after 72 hr using MTT assay. To be noted: L132, 72 h, read-out: ED50 (the source's name).
For a further test, the system named is PA-1. Kind of test: Cytotoxic activity against human PA-1 cell line was measured after 72 hr using MTT assay. The following applies: Homo sapiens, PA-1, 72 h; read-out: ED50 (the source's name).
In a further test the test system is DU-145. The test can be described thus: Cytotoxic activity against human DU145 cell line was measured after 72 hr using MTT assay. To be noted: Homo sapiens, DU-145, 72 h; read-out: ED50 (the source's name).
The test system of a further test is MOLT-4. Kind of test: Cytotoxic activity against human MOLT-4 cell line was measured after 72 hr using MTT assay. To be noted: Homo sapiens, MOLT-4, 72 h; read-out: ED50 (the source's name).
For a further test, the system named is CCRF-CEM. Kind of test: Cytotoxic activity against human CEM.CM3 cell line was measured after 72 hr using MTT assay. The following applies: Homo sapiens, CCRF-CEM, 72 h; read-out: ED50 (the source's name).
The next test has as its system BRISTOL8. The test can be described thus: Cytotoxic activity against human BRISTOL8 cell line was measured after 72 hr using MTT assay. The following applies: Homo sapiens, BRISTOL8, 72 h; read-out: ED50 (the source's name).
Another test deals with U-937. Kind of test: Cytotoxic activity against human U937 cell line was measured after 72 hr using MTT assay. To be noted: Homo sapiens, U-937, 72 h; read-out: ED50 (the source's name).

Structures are written as SMILES. In brackets after ≈: the same amount, converted by molar mass. Where only a bound is given, the exact number is not on record here.

In the case of `COC(=O)COC(=O)[C@]12CC[C@@H](C(C)C)C1C1CCC3[C@@]4(C)CC[C@H](O)C(C)(C)C4CC[C@@]3(C)[C@]1(C)CC2` (stereo partly drawn), the EC50 is 5.5 µg/mL (≈ 10.4 µM) in the test on Jurkat; more than 10 µg/mL with A549; more than 10 µg/mL in the test on L132; 0.5 µg/mL (≈ 0.942 µM) in the test with PA-1; more than 10 µg/mL with DU-145; 2.8 µg/mL (≈ 5.28 µM) in the test on MOLT-4. The results for the EC50 in the test with CCRF-CEM, with BRISTOL8 and in the test with U-937 were 2.5 µg/mL (≈ 4.71 µM), 3.4 µg/mL (≈ 6.41 µM) and more than 10 µg/mL, respectively.

As for `C=C(C)[C@@H]1CC[C@]2(C(=O)OCC(=O)OC)CC[C@]3(C)C(CCC4[C@@]5(C)CCC(=N)C(C)(C)C5CC[C@]43C)C12` (stereo partly drawn), the EC50 in the test on Jurkat was 0.5 µg/mL (≈ 0.951 µM); in the test with A549, more than 10 µg/mL; with L132, more than 10 µg/mL; in the test with PA-1, 6.5 µg/mL (≈ 12.4 µM); in the test with DU-145 it was 5.5 µg/mL (≈ 10.5 µM); in the test on MOLT-4, 1.7 µg/mL (≈ 3.23 µM). Further, the EC50 in the test with CCRF-CEM is 1.4 µg/mL (≈ 2.66 µM); in the test with BRISTOL8, 1.4 µg/mL (≈ 2.66 µM); in the test with U-937, 1.7 µg/mL (≈ 3.23 µM).

Consider `C=C(C)[C@@H]1CC[C@]2(C(=O)O)CC[C@]3(C)C(CCC4[C@@]5(C)CC/C(=N\OS(=O)(=O)c6ccc(C)cc6)C(C)(C)C5CC[C@]43C)C12` (stereo partly drawn), for which the EC50 is 4.9 µg/mL (≈ 7.85 µM) in the test with Jurkat; more than 10 µg/mL with A549; more than 10 µg/mL in the test with L132; 1.8 µg/mL (≈ 2.89 µM) in the test with PA-1; 2.8 µg/mL (≈ 4.49 µM) in the test on DU-145; 2.7 µg/mL (≈ 4.33 µM) with MOLT-4. Besides, the EC50 in the test on CCRF-CEM is 1.5 µg/mL (≈ 2.4 µM); in the test on BRISTOL8, 3.3 µg/mL (≈ 5.29 µM); in the test on U-937, 4.8 µg/mL (≈ 7.69 µM).

Regarding `C=C(C)[C@@H]1CC[C@]2(C(=O)O)CC[C@]3(C)C(CCC4[C@@]5(C)CC[C@H](OC(=O)CC)C(C)(C)C5CC[C@]43C)C12` (stereo partly drawn), the EC50 in the test on Jurkat was 2.1 µg/mL (≈ 4.1 µM); in the test on A549 it was more than 10 µg/mL; in the test with L132, more than 10 µg/mL; in the test with PA-1, 3.7 µg/mL (≈ 7.22 µM); in the test with DU-145, 4.2 µg/mL (≈ 8.19 µM); with MOLT-4, 3.3 µg/mL (≈ 6.44 µM). For the same compound, the EC50 in the test with CCRF-CEM came to 5.5 µg/mL (≈ 10.7 µM); with BRISTOL8 it was 2.1 µg/mL (≈ 4.1 µM); in the test on U-937, 6.8 µg/mL (≈ 13.3 µM).

Regarding `C=C(C)[C@@H]1CC[C@]2(C(=O)O)CC[C@]3(C)[C@H](CC[C@@H]4[C@@]5(C)CC[C@H](O)C(C)(C)[C@@H]5CC[C@]43C)[C@@H]12` [BETULINIC ACID], the EC50 in the test on Jurkat is 0.65 µg/mL (≈ 1.42 µM); in the test on A549 it was more than 10 µg/mL; in the test on L132, 1.3 µg/mL (≈ 2.85 µM); in the test on PA-1, more than 10 µg/mL; in the test on DU-145, 1.13 µg/mL (≈ 2.47 µM); in the test on MOLT-4, 1.23 µg/mL (≈ 2.69 µM). In addition, the EC50 in the test on CCRF-CEM came out at 0.98 µg/mL (≈ 2.15 µM); with BRISTOL8 it was 0.84 µg/mL (≈ 1.84 µM); in the test on U-937 it was 0.69 µg/mL (≈ 1.51 µM).

As to `COC(=O)COC(=O)[C@]12CC[C@@H](C(C)(Br)CBr)C1C1CCC3[C@@]4(C)CC(Br)C(=O)C(C)(C)C4CC[C@@]3(C)[C@]1(C)CC2` (stereo partly drawn), the EC50 is 1.1 µg/mL (≈ 1.44 µM) in the test on Jurkat; more than 10 µg/mL in the test with A549; more than 10 µg/mL in the test on L132; 2.5 µg/mL (≈ 3.27 µM) with PA-1; 4.5 µg/mL (≈ 5.88 µM) in the test with DU-145; 1.3 µg/mL (≈ 1.7 µM) in the test with MOLT-4. Also, the EC50 in the test with CCRF-CEM stood at 1.2 µg/mL (≈ 1.57 µM); in the test with BRISTOL8, 1.9 µg/mL (≈ 2.48 µM); in the test with U-937, 0.7 µg/mL (≈ 0.914 µM).

Regarding `CC(C)[C@@H]1CC[C@]2(C(=O)O)CC[C@]3(C)C(CCC4[C@@]5(C)CC/C(=N\Nc6ccccc6)C(C)(C)C5CC[C@]43C)C12` (stereo partly drawn), the EC50 with Jurkat is 6.3 µg/mL (≈ 11.5 µM); in the test with A549 it was more than 10 µg/mL; in the test with L132, 7.4 µg/mL (≈ 13.5 µM); with PA-1, 0.4 µg/mL (≈ 0.731 µM); in the test with DU-145, 0.6 µg/mL (≈ 1.1 µM); with MOLT-4, 1.4 µg/mL (≈ 2.56 µM). Further, the EC50 came out at 2.9 µg/mL (≈ 5.3 µM) in the test with CCRF-CEM, 3.7 µg/mL (≈ 6.77 µM) with BRISTOL8 and 2.2 µg/mL (≈ 4.02 µM) with U-937.
